# “Also recorded” adds a separate entry of the source. Like-named read-outs stand apart in the source and are kept apart here.
# What was measured:
# [1] = Acute toxicity (LD50) by oral or intraperitoneal administration to ddY mice (Test Example 6); format: in vivo; conditions: mouse, in vivo, 7 days
# Experimental: The acute toxicity of the compound according to this invention was determined by forced oral or intraperitoneal administration thereof to ddY mice.
# To prepare each specimen to be administered, a predetermined amount of each compound shown in Table 5 was dissolved in a physiological saline or suspended in a 0.2% solution of carboxymethylcellulose in a physiological saline. Each specimen was administered orally to a ddY mouse via its stomach tube or injected intraperitoneally.
# [2] = system: Sarcoma-180; assay: Activity against a transplantable cancer, Sarcoma-180 (Test Example 7); format: in vivo, ICR-JCL mice; conditions: Mus musculus, Sarcoma-180, ip, 240 h, 100 mg/kg ip once a day for 10 days; read-out: I.R. (inhibition ratio, Sarcoma-180 tumor weight)
# Experimental: Sarcoma-180 cells (1×10^6 cells) were inoculated subcutaneously into the back skin of each of ICR-JCL mice.
# Chemotherapy was given intraperitoneally 24 hrs. after inoculation and performed once a day for 10 days. Each specimen to be administered was prepared by dissolving or suspending 30 mg of each compound according to this invention in 1 ml of a physiological saline or in 1 ml of a 0.2% solution of carboxymethylcellulose in a physiological saline, respectively.
# All the solutions and the suspensions thus prepared were injected at a volume of 0.1 ml as a single dose (100 mg/Kg).
# The inhibition ratio (%) was calculated according to the following equation: […]
# wherein T represents the mean weight of the tumor Sarcoma-180 in a tested group of mice; and C represents the mean weight of the tumor in a control group of mice.
# [3] = system: synthesis of [35S]glycosaminoglycan in epiphysial cartilages; assay: Recovery in the rate of 35S uptake in cartilage in which glycosaminoglycan synthesis was inhibited by cycloheximide (Test Examples 4, 5); format: cell-based, chick embryos; conditions: for Rate of 35S uptake: cycloheximide 0.3 mM; for 35S uptake as compared with the case where no xylopyranoside was added: 0.02 mM solution in DMSO; for effectiveness as initiator for the synthesis of chondroitin sulfate: 1.0 mM solution in DMSO, in words
# Experimental: (§1) Epiphysial cartilages were taken from chick embryos aged 12 days in the Tyrode's medium under ice-cooling, and excess tissues were removed therefrom. To 150 mg. of cartilages corresponding to five embryos, 5 ml. of BGJb [a completely synthetic culture medium prepared according to a recipe of GIBCO (Grand Island Biological Company)] was added, followed by pre-incubation at a temperature of 37° C. After replacing the culture medium, further 1 ml. of BGJb and 5 μCi Na2^35 SO4 were added, and the culture system was kept at 37° C. for 3 hours. The culture medium was then replaced by 1 ml. of a fresh chase medium containing no radio active isotope. After keeping the culture system at 37° C. for 1 hour, the culture medium was separated from the tissues. To study the effects of the xyloside compound on the synthesis of glycosaminoglycan, the xyloside compound was added in the predetermined concentration to the pre-incubation and incubation media.
# (§2) After the incubation, the labeled medium containing Na2^35 SO4 was combined with the chase medium. Pronase-P (trade name) (available from Kaken Kagaku Co., Ltd.) was added thereto in a 0.5 M tris-HCl buffer solution (pH 8.0), and the resulting mixture was digested at 50° C. for 16 hours. The digested reaction mixture was then subjected to gel filtration through a column (1.5×14 cm.) packed with Bio-Gel P-2 (available from Bio-Rad Company) using a 0.2 M ammonium formate solution as an eluate. In this way, the Vo fraction was collected and was then freeze-dried to give a crude glycosaminoglycan.
# (§3) On the other hand, ice-cold 4 M guanidine hydrochloride was added to the tissues which were previously separated from the culture medium. The resulting mixture was left to stand overnight at a temperature of -20° C., and then homogenized. The obtained homogenate was left to stand overnight at room temperature and centrifuged at a speed of 8,500 rpm to obtain a supernatant. To the obtained liquid, water was added in an amount threefold that of the supernatant. Then, a 95% ethyl alcohol (containing 1.3% of potassium acetate) was added to the resulting mixture in an amount threefold that of the mixture to obtain a precipitate. This procedure was repeated twice, and the combined precipitates were dried in a desiccator. The obtained precipitates were dissolved in a 0.02 M tris-HCl buffer solution (pH 8.0) and digested with Pronase-P in the manner similar to the culture medium described above, thereby obtaining a crude glycosaminoglycan.
# (§4) According to the same procedure as in Test example 1, a crude glycosaminoglycan was obtained.
# As the xyloside compound, publicly-known methyl 1-thio-β-D-xylopyranoside and n-butyl 1-thio-β-D-xylopyranoside,and six compounds according to the present invention viz. n-heptyl 1-thio-β-D-xylopyranoside, n-nonyl 1-thio-β-D-xylopyranoside, n-decyl 1-thio-β-D-xylopyranoside, n-undecyl […], n-lauryl 1-thio-β-D-xylopyranoside and n-cetyl 1-thio-β-D-xylopyranoside were used. The effects of these compounds on the total amount of [^35 S]glycosaminoglycan synthesized (^35 S uptake amount) were investigated.
# That is, after the effect of the addition of DMSO (dimethyl sulfoxide) which is a solvent was investigated, […], thereby inhibiting the synthesis of [^35 S]glycosaminoglycan by around up to 95%. Subsequently, to the medium in which the synthesis of glycosaminoglycan had been inhibited, there was added each solution of the xyloside compound in DMSO having various concentrations to investigate the recovery in the rate of the ^35 S uptake (the relative value expressed by percentage ^35 S uptake relative to the amount of uptake in a control medium to which no xylpyranoside compound was added).
# According to the same procedure as in Example 1, a crude glycosaminoglycan was obtained. […]
# [4] = system: synthesis of chondroitin sulfate in epiphysial cartilages; assay: Effect of xyloside compounds on synthesis of [35S]glycosaminoglycan (chondroitin sulfate) in epiphysial cartilage culture (Test Examples 1-3); format: cell-based, chick embryos; conditions: for concentration required compared with O-β-D-xylopyranoside compounds / total 35S uptake amount of glycosaminoglycan as the concentration of the xyloside compound rose / effectiveness as initiator for the synthesis of chondroitin sulfate: in words; for total 35S uptake amount of glycosaminoglycan as the concentration of the xyloside compound rose: concentration in culture medium varied; for activity at 1000 µM: Gallus gallus
# Experimental: as §1, §2, §3
# As the xyloside compound, conventional O-paranitrophenyl-β-D-xylopyranoside, and two compounds according to the present invention viz. C-n-butyl-β-D-xylopyranoside and C-ethyl-β-D-xylopyranoside were used. The effects of these xyloside compounds on the total amount of [^35 S] glycosaminoglycan synthesized (^35 S uptake amount), the amount thereof liberated to the culture medium and the amount thereof remaining in the tissues were as shown in FIGS. 1 to 3.
# In each Figure, the vertical axis denotes the amount of [^35 S]chondroitin sulfate (^35 S cpm×10^-4 /μmol.uronic acid) and the horizontal axis denotes the concentration (mM) of each xylopyranoside compound in the culture medium.
# as §4
# As the xyloside compound, conventional O-paranitrophenyl β-D-xylopyranoside and N-para(sodiumoxycarbonyl)phenyl-D-xylopyranosylamine, and three compounds according to the present invention viz. para(sodiumoxycarbonyl)phenyl β-D-xylopyranoside, C-para(sodiumoxycarbonyl)benzyl-β-D-xylopyranoside and para(sodiumoxycarbonyl)phenyl 1-thio-β-D-xylopyranoside were used. The effects of these xyloside compounds on the total amount of [^35 S]glycosaminoglycan synthesized (^35 S uptake amount) were shown in FIGS. 3 to 7. […]
# [5] = ip, intraperitoneal, read-out: LD50 (ip)
compound,measurement,setting,value
O=C(O)c1ccc(C[C@@H]2OC[C@@H](O)[C@H](O)[C@H]2O)cc1 [C-Para(lithiumoxycarbonyl)benzyl-β-D-xylopyranoside],LD50 at 168 h,[1]; [5],2500 mg/kg
same,LD50 at 168 h,"[1]; po, read-out: LD50 (po)",8600 mg/kg
same,inhibition in vivo at 100 mg/kg,[2],44.7%
"C[C@@H]1C[C@@H]([C@H](O)CC2CC(=O)NC(=O)C2)C(=O)[C@@H](C)C1 [cycloheximide, reference compound]",inhibition at 30 µM,"[3]; Gallus gallus, read-out: inhibition of the synthesis of [35S]glycosaminoglycan",~95%
same,Rate of 35S uptake,"[3]; no xyloside, DMSO 0%, relative to control medium",5.5%
same,Rate of 35S uptake,"[3]; no xyloside, DMSO 0.1%, relative to control medium",4.9%
same,Rate of 35S uptake,"[3]; no xyloside, DMSO 0.2%, relative to control medium",6.1%
same,Rate of 35S uptake,"[3]; no xyloside, DMSO 0.5%, relative to control medium",6.1%
same,Rate of 35S uptake,"[3]; no xyloside, DMSO 1.0%, relative to control medium",5.8%
"CCCCCCCS[C@@H]1OC[C@@H](O)[C@H](O)[C@H]1O [n-heptyl 1-thio-β-D-xylopyranoside, n-Heptyl 1-thio-β-D-xylopyranoside]",35S uptake as compared with the case where no xylopyranoside was added,[3],around twice
O=C(O)c1ccc(O[C@@H]2OC[C@@H](O)[C@H](O)[C@H]2O)cc1 [Para(potassiumoxycarbonyl)phenyl-β-D-xylopyranoside],LD50 at 168 h,[1]; [5],3020 mg/kg
same,LD50 at 168 h,"[1]; po, read-out: LD50 (po)",9800 mg/kg
same,inhibition in vivo at 100 mg/kg,[2],44.8%
"CCCCCCCCS[C@@H]1OC[C@@H](O)[C@H](O)[C@H]1O [n-octyl 1-β-D-xylopyranoside, n-Octyl 1-thio-β-D-xylopyranoside]",35S uptake as compared with the case where no xylopyranoside was added,[3],around twice
"CCCCCC[C@@H]1OC[C@@H](O)[C@H](O)[C@H]1O [C-n-hexyl-β-D-xylopyranoside, C-n-Hexyl-β-D-xylopyranoside]",effectiveness as initiator for the synthesis of chondroitin sulfate,[3],extremely effective initiators for the synthesis of chondroitin sulfate
same,Rate of 35S uptake,"[3]; xyloside 0.2 mM, DMSO 0.1%",82.0%
same,Rate of 35S uptake,"[3]; xyloside 0.5 mM, DMSO 0.1%",148.0%
same,Rate of 35S uptake,"[3]; xyloside 1.0 mM, DMSO 0.1%",196.0%
CC(C)CCS[C@@H]1OC[C@@H](O)[C@H](O)[C@H]1O [Isoamyl 1-thio-β-D-xylopyranoside],LD50 at 168 h,[1]; [5],1850 mg/kg
same,LD50 at 168 h,"[1]; po, read-out: LD50 (po)",5800 mg/kg
same,inhibition in vivo at 100 mg/kg,[2],35.6%
O=C(O)c1ccc(S[C@@H]2OC[C@@H](O)[C@H](O)[C@H]2O)cc1 [Para(lithiumoxycarbonyl)phenyl 1-thio-β-D-xylopyranoside],LD50 at 168 h,[1]; [5],2700 mg/kg
same,LD50 at 168 h,"[1]; po, read-out: LD50 (po)",7800 mg/kg
same,inhibition in vivo at 100 mg/kg,[2],47.2%
"O[C@@H]1[C@@H](O)[C@H](Cc2ccccc2)OC[C@H]1O [C-Benzyl-1-β-D-xylopyranoside, C-Benzyl-β-D-xylopyranoside]",LD50 at 168 h,[1]; [5],2400 mg/kg
same,LD50 at 168 h,"[1]; po, read-out: LD50 (po)",7200 mg/kg
same,inhibition in vivo at 100 mg/kg,[2],30.9%
CC(C)S[C@@H]1OC[C@@H](O)[C@H](O)[C@H]1O [Isopropyl 1-thio-β-D-xylopyranoside],LD50 at 168 h,[1]; [5],2200 mg/kg
same,LD50 at 168 h,"[1]; po, read-out: LD50 (po)",6700 mg/kg
same,inhibition in vivo at 100 mg/kg,[2],30.4%
O=C(O)c1ccc(NC2OC[C@@H](O)[C@H](O)[C@H]2O)cc1 (stereo partly drawn) [N-para(sodiumoxycarbonyl)phenyl-D-xylopyranosylamine],concentration required compared with O-β-D-xylopyranoside compounds,[4],requires higher concentrations as compared with O-paranitrophenyl-β-D-xylopyranoside
same,total 35S uptake amount of glycosaminoglycan as the concentration of the xyloside compound rose,[4],shows a similar tendency; also recorded: does not change remarkably within the range of the concentration of 0 to 20 mM of the compound and that the increase in the total uptake amount thereafter is mild
CCCCCCC[C@@H]1OC[C@@H](O)[C@H](O)[C@H]1O [C-n-Heptyl-β-D-xylopyranoside],LD50 at 168 h,[1]; [5],1040 mg/kg
same,LD50 at 168 h,"[1]; po, read-out: LD50 (po)",4200 mg/kg
same,inhibition in vivo at 100 mg/kg,[2],54.8%
same,effectiveness as initiator for the synthesis of chondroitin sulfate,[3],extremely effective initiators for the synthesis of chondroitin sulfate
same,Rate of 35S uptake,"[3]; xyloside 0.2 mM, DMSO 0.1%",114.0%
same,Rate of 35S uptake,"[3]; xyloside 0.5 mM, DMSO 0.1%",183.0%
same,Rate of 35S uptake,"[3]; xyloside 1.0 mM, DMSO 0.1%",193.0%
O=[N+]([O-])c1ccc(O[C@@H]2OC[C@@H](O)[C@H](O)[C@H]2O)cc1 [O-paranitrophenyl-β-D-xylopyranoside],activity at 1000 µM,"[4]; at 1 mM, read-out: [35S]glycosaminoglycan liberated to the culture medium",95%
same,activity at 1000 µM,"[4]; at 1 mM, read-out: [35S]glycosaminoglycan remaining in the tissues",11%
same,35S uptake of glycosaminoglycan,[4]; at 1 mM,40800 cpm
same,35S uptake of glycosaminoglycan relative to control,[4]; at 1 mM,2.35 times that of the control
same,[35S]glycosaminoglycan remaining in the tissues,[4]; at 1 mM,11 % of the control
same,effectiveness as initiator for the synthesis of chondroitin sulfate,[4],extremely effective as an initiator for the synthesis of chondroitin sulfate; also recorded: extremely effective as the initiator for the synthesis of condroitin sulfate
same,total 35S uptake amount of glycosaminoglycan as the concentration of the xyloside compound rose,[4],increased
"NC(=O)c1ccc(NC2OC[C@@H](O)[C@H](O)[C@H]2O)cc1 (stereo partly drawn) [N-carbamoylphenyl-D-xylopyranosylamine, N-Paracarbamoylphenyl-D-xylopyranosylamine]",concentration required compared with O-β-D-xylopyranoside compounds,[4],requires higher concentration as compared with the O-β-D-xylopyranoside compounds
same,effectiveness as initiator for the synthesis of chondroitin sulfate,[4],good initiator for the synthesis of chondroitin sulfate
same,total 35S uptake amount of glycosaminoglycan as the concentration of the xyloside compound rose,[4],increased as the concentration of the xyloside compound rose
